Consider one molecule from paper PMC6488552, “Pharmacokinetic and Pharmacodynamic Properties of a Micro-Dose Nasal Spray Formulation of Desmopressin (AV002) in Healthy Water-Loaded Subjects” (Pharmaceutical Research, 2019).

One data set can be described thus: clinical. Particulars: human, in vivo. The protocol:
Each subject was dosed 4 times over 1 week with dosing occurring every other day. Doses of AV002 were administered at 0.5, 1.0, and 2.0 μg intranasally.
On Days 1, 3 and 5, subjects were dosed intranasally with escalating doses of AV002 nasal spray. On Day 7, 6 subjects were given a single SC bolus injection of desmopressin. Pharmacodynamic and pharmacokinetic metrics were evaluated at each dose level.
Plasma samples were analyzed using a validated radioimmunoassay assay (Celerion Switzerland AG) for desmopressin with a lower limit of quantification (LLOQ) of 2.5 pg/mL and upper limit of quantitation of 160 pg/mL. A 1.25 pg/mL calibration standard was included in the assay runs and concentrations between 1.25 and 2.5 pg/mL were reported out even though they were below the nominal LLOQ.
Pharmacokinetic variables were generally analyzed using model-independent methods. A single compartment model with first order absorption was used to qualitatively assess the impact of probable pharmacokinetic behavior of desmopressin when concentrations declined below the assay lower limit of quantification.
Pharmacokinetic calculations were performed using built in functions in the Excel 2003 component of Microsoft Office 2003 (Microsoft, Redmond, WA). The correctness of the calculation techniques was confirmed by comparison to output from WinNonlin 4.0.1 (Pharsight Corporation, Sunnyvale, CA). Summary statistics, graphs and figures were generated using built in functions and features of Excel 2003.
Pharmacokinetic samples were collected at pre-dose and 0.083, 0.167, 0.25, 0.50, 0.75, 1.05, 1.50, 2.05, 3.05, 4.05, and 6.05 h post dose each dosing day.

The conditions of data set [1]: in vivo, cited from earlier work.

A word on the half-life: it is the time in which the quantity being followed falls by half. One may read the CL/F as the apparent clearance, not corrected for the fraction that reaches the circulation. What is called AUC(0-inf) is total exposure, with the tail of the curve extrapolated. Usually Tmax stands for the time from dosing to the highest level. On to `NC(=O)CC[C@@H]1NC(=O)[C@H](Cc2ccccc2)NC(=O)[C@H](Cc2ccc(O)cc2)NC(=O)CCSSC[C@@H](C(=O)N2CCC[C@H]2C(=O)N[C@H](CCCN=C(N)N)C(=O)NCC(N)=O)NC(=O)[C@H](CC(N)=O)NC1=O` [Desmopressin, desmopressin], for which the half-life in the data set “clinical” was 90 min. Further, in “clinical” (sc), the “mean Tmax” value is 53 min. This molecule gave a CL/F in the data set “clinical” (sc, 0.12 ug) of 227 mL/min. In “clinical” (sc, 0.12 ug, SD), the AUC(0-inf) stood at 0.0102 ± 0.0049 ng·h/mL and the Tmax came out at 53 ± 20.9 min. For the same molecule, the intranasal bioavailability in data set [1] (human) is 3.4%. Further, the “relative bioavailability of intranasal administration, of SC injection” value in data set [1] is listed as “approximately 2%”.
